{
  "source": "patent US20250078975A1",
  "about": "“METHODS OF PREDICTING PATIENT TREATMENT RESPONSE AND RESISTANCE VIA SINGLE-CELL TRANSCRIPTOMICS OF THEIR TUMORS” (The USA, as represented by the Secretary, Department of …, priority 2023, published 2025)",
  "origin": "cited, not measured here",
  "system": "cancer cell lines",
  "details": "through downregulation of Akt (Bartholomeusz et al. 2011)",
  "data": [
    {"molecule": "Nc1ccn([C@@H]2O[C@H](CO)[C@@H](O)C2(F)F)c(=O)n1", "note": "[gemcitabine]", "values": [
      {"measurement": "Effect on erlotinib resistance", "value": "can overcome erlotinib resistance"}
    ]}
  ]
}
